In one series the target is thrombin (Homo sapiens, UniProt P00734). The note with it: previous analyses, Dickneite G. et al.; cited from earlier work.
A short description of series [1]: Urea breakdown in blood plasma solution on urease-doped PMMA capillary dialyzer system. Type of series: biochemical. The protocol: As model enzyme, urease (EC 3.5.1.5., available from Sigma, order no. U 1500) is used. The preparation of a PEG-coupled urease preparation: 100 mg urease (type III, specific activity 20,000 to 30,000 U/g) are dissolved in 80 ml 0.1-mol borate buffer (pH 8) and added to 250 mg methoxy polyethylene glycol (25,000)-4-nitrophenyl carbonate and incubated for 24 h at 5° C. The reaction is stopped by a several times higher molar excess of TRIS, dialyzed against TRIS-HCl (pH 8) and developed in a HP-Q-sepharose column having a linear NaCl gradient (pH 8). The PEG urease conjugate elutes-at 180 to 200 mmol NaCl. The yield of PEG urease conjugate is 30-40%. The enzyme activity is measured by means of a urea assay. The cleaving activity is monitored by way of pH titration measuring and compared with non-conjugated urease. […] The urease coupled with 25 kD-polyethylene glycol is applied in a concentration of 2 mg (based on the protein content of the conjugate) to a miniaturized experimental capillary dialyzer having a surface of 50 cm^2. Already after the first circulation, more than 90% of the urease are immobilized on the surface. By the fifth recirculation cycle, the PEG urease is firmly installed on the surface of the membrane. […] A blood plasma solution (50 ml containing 30 mg urea) is applied to the urease-doped PMMA capillary dialyzer system. In the eluate of the experimental PEG-urease-PMMA membrane, the remaining amounts of urea are identified after 5, 10, 20, and 30 minutes by way of an enzyme assay. […] The ammonia test in the blood is positive during the last 25 minutes of the experiment. From the analysis, it can be doubtlessly concluded that a pegylated enzyme, bonded to the PMMA membrane, develops a local enzyme activity and is able to generate corresponding specific interactions with its substrate in the circulating blood.

A short description of series [2]: Urea assay of enzyme activity, pH titration, compared with non-conjugated urease. Type of series: biochemical. As for the experimental part:
(§1) As model enzyme, urease (EC 3.5.1.5., available from Sigma, order no. U 1500) is used. The preparation of a PEG-coupled urease preparation: 100 mg urease (type III, specific activity 20,000 to 30,000 U/g) are dissolved in 80 ml 0.1-mol borate buffer (pH 8) and added to 250 mg methoxy polyethylene glycol (25,000)-4-nitrophenyl carbonate and incubated for 24 h at 5° C. The reaction is stopped by a several times higher molar excess of TRIS, dialyzed against TRIS-HCl (pH 8) and developed in a HP-Q-sepharose column having a linear NaCl gradient (pH 8). The PEG urease conjugate elutes-at 180 to 200 mmol NaCl. The yield of PEG urease conjugate is 30-40%. The enzyme activity is measured by means of a urea assay. The cleaving activity is monitored by way of pH titration measuring and compared with non-conjugated urease. […] The urease coupled with 25 kD-polyethylene glycol is applied in a concentration of 2 mg (based on the protein content of the conjugate) to a miniaturized experimental capillary dialyzer having a surface of 50 cm^2. Already after the first circulation, more than 90% of the urease are immobilized on the surface. By the fifth recirculation cycle, the PEG urease is firmly installed on the surface of the membrane. […] A blood plasma solution (50 ml containing 30 mg urea) is applied to the urease-doped PMMA capillary dialyzer system. […]

A short description of series [3]: Immobilization of PEG urease on miniaturized experimental PMMA capillary dialyzer. The note with it: 2 mg on 50 cm^2 dialyzer, after the first circulation. As for the experimental part: as §1

In the case of Mtr-Asn-D-Adf-Pip, the “thrombin inhibiting agent quality” value on thrombin was “highly specific and effective”.

In the case of “PEG urease: urease (EC 3.5.1.5., Sigma) coupled with 25 kD-polyethylene glycol”, in series [1] (50 ml plasma containing 30 mg urea, after 30 min), the “remaining urea in the eluate” value was “unbound urea cannot be identified anymore”. For the same substance, in series [1] (50 ml plasma containing 30 mg urea, within the first 10 min), the “urea concentration in the blood plasma” value is recorded as “decreases rapidly”. Moreover, in series [1] (during the last 25 minutes of the experiment), the “ammonia test in the blood” value is reported as “positive”. For the same substance, the “influence of pegylation on the ureolytic activity of the enzyme” value in series [2] is recorded as “slightly activity-increasing”. In addition, the “urease immobilized on the surface” value in series [3] is reported as “more than 90%”.

The values above are taken from patent publication US7494824B2, “Interactive system for presenting and eliminating substances” (Max-Planck-Gesellschaft zur Förderung der Wissenschaften e. …, priority 1997, dated 2009).
